Measurements from the supplement of paper PMC10307832.

What was measured:
Assay in all cases: relative viability (nuclei count vs DMSO), 5 days (fraction); higher = more cells survive
NCI-H23 = tested on: NCI-H23
How it was run: (§1)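 Five library-drug doses in √10 steps were combined with a fixed anchor-drug dose, or a single drug was given alone, by pin tool to lung cancer cell lines in 1536-well plates the day after seeding. Nuclei were stained and counted after 5 days. Relative viability is the nuclei count in treated wells over that in vehicle wells, taken as the median of duplicate plates.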

NCI-H358 = tested on: NCI-H358
How it was run: as §1

NCI-H1792 = tested on: NCI-H1792
How it was run: as §1

SK-MES-1 = tested on: SK-MES-1
How it was run: as §1

NCI-H1793 = tested on: NCI-H1793
How it was run: as §1

LC-2-ad = tested on: LC-2-ad
How it was run: as §1

NCI-H1395 = tested on: NCI-H1395
How it was run: as §1

NCI-H2023 = tested on: NCI-H2023
How it was run: as §1

NCI-H650 = tested on: NCI-H650
How it was run: as §1

PC-14 = tested on: PC-14
How it was run: as §1

COR-L23 = tested on: COR-L23
How it was run: as §1

Cc1csc(=NC2CCCCC2)n1/N=C/c1ccc(O)c(O)c1O [MIM1] + Cc1nc(NC(=O)N2CCC[C@H]2C(N)=O)sc1-c1ccnc(C(C)(C)C(F)(F)F)c1 [Alpelisib] (partner 2 µM)
relative viability (NCI-H23; first compound 0.2 µM): 0.653
relative viability (NCI-H23; first compound 2 µM): 0.555
relative viability (NCI-H23; first compound 6.325 µM): 0.606
relative viability (NCI-H23; first compound 20 µM): 0.203
relative viability (NCI-H358; first compound 0.2 µM): 0.829
relative viability (NCI-H358; first compound 0.6325 µM): 0.881
relative viability (NCI-H358; first compound 2 µM): 0.721
relative viability (NCI-H358; first compound 6.325 µM): 0.383
relative viability (NCI-H358; first compound 20 µM): 0.274
relative viability (NCI-H1792; first compound 0.2 µM): 0.67
relative viability (NCI-H1792; first compound 0.6325 µM): 0.654
relative viability (NCI-H1792; first compound 2 µM): 0.694
relative viability (NCI-H1792; first compound 6.325 µM): 0.433
relative viability (NCI-H1792; first compound 20 µM): 0.599
relative viability (SK-MES-1; first compound 0.2 µM): 0.913
relative viability (SK-MES-1; first compound 0.6325 µM): 0.774
relative viability (SK-MES-1; first compound 2 µM): 0.813
relative viability (SK-MES-1; first compound 6.325 µM): 0.8
relative viability (SK-MES-1; first compound 20 µM): 0.725
relative viability (NCI-H1793; first compound 0.2 µM): 0.509
relative viability (NCI-H1793; first compound 0.6325 µM): 0.584
relative viability (NCI-H1793; first compound 2 µM): 0.717
relative viability (NCI-H1793; first compound 6.325 µM): 0.579
relative viability (NCI-H1793; first compound 20 µM): 0.804
relative viability (LC-2-ad; first compound 0.2 µM): 0.867
relative viability (LC-2-ad; first compound 0.6325 µM): 0.905
relative viability (LC-2-ad; first compound 2 µM): 0.946
relative viability (LC-2-ad; first compound 6.325 µM): 0.527
relative viability (LC-2-ad; first compound 20 µM): 0.116
relative viability (NCI-H1395; first compound 0.2 µM): 0.947
relative viability (NCI-H1395; first compound 0.6325 µM): 1.06
relative viability (NCI-H1395; first compound 2 µM): 0.911
relative viability (NCI-H1395; first compound 6.325 µM): 0.537
relative viability (NCI-H1395; first compound 20 µM): 0.407
relative viability (NCI-H2023; first compound 0.2 µM): 0.564
relative viability (NCI-H2023; first compound 0.6325 µM): 0.594
relative viability (NCI-H2023; first compound 2 µM): 0.526
relative viability (NCI-H2023; first compound 6.325 µM): 0.368
relative viability (NCI-H2023; first compound 20 µM): 0.328
relative viability (NCI-H650; first compound 0.2 µM): 1.19
relative viability (NCI-H650; first compound 0.6325 µM): 1.1
relative viability (NCI-H650; first compound 2 µM): 1.27
relative viability (NCI-H650; first compound 6.325 µM): 1.04
relative viability (NCI-H650; first compound 20 µM): 0.396
relative viability (PC-14; first compound 0.2 µM): 0.886
relative viability (PC-14; first compound 0.6325 µM): 0.92
relative viability (PC-14; first compound 2 µM): 0.847
relative viability (PC-14; first compound 6.325 µM): 0.878
relative viability (PC-14; first compound 20 µM): 0.383
relative viability (COR-L23; first compound 0.2 µM): 0.725
relative viability (COR-L23; first compound 0.6325 µM): 0.809
relative viability (COR-L23; first compound 2 µM): 0.537
